Inconclusive results and toxic doses are left out. No stated cut-off is given here; in the data, active means T/C of 150% or more; inactive means T/C below 125%.
Test system: L1210 leukemia ip in BDF1 mice, survival T/C
Test: NCI In Vivo Anticancer Drug Screen. Data for tumor model L1210 Leukemia (intraperitoneal) in B6D2F1 (BDF1) mice
Conditions: endpoint: mean survival time, higher = longer survival
Summary of the method: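 Transplantable tumor model; survival measured in treated vs vehicle control mice. Value = treated/control.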

[1] = dose: 100.0 mg/kg/injection, schedule: Q01DX001 (ip), vehicle: Klucel (hydroxypropylcellulose) (HPC)
[2] = dose: 200.0 mg/kg/injection, schedule: Q01DX001 (ip), vehicle: Klucel (hydroxypropylcellulose) (HPC)
[3] = dose: 100.0 mg/kg/injection, schedule: Q04DX003 (ip), vehicle: Klucel (hydroxypropylcellulose) (HPC)
[4] = dose: 200.0 mg/kg/injection, schedule: Q04DX003 (ip), vehicle: Klucel (hydroxypropylcellulose) (HPC)
[5] = dose: 400.0 mg/kg/injection, schedule: Q04DX003 (ip), vehicle: Klucel (hydroxypropylcellulose) (HPC)
[6] = dose: 50.0 mg/kg/injection, schedule: Q01DX001 (ip), vehicle: carboxymethylcellulose (CMC)
[7] = dose: 100.0 mg/kg/injection, schedule: Q01DX001 (ip), vehicle: carboxymethylcellulose (CMC)
[8] = dose: 200.0 mg/kg/injection, schedule: Q01DX001 (ip), vehicle: carboxymethylcellulose (CMC)
[9] = dose: 400.0 mg/kg/injection, schedule: Q01DX001 (ip), vehicle: carboxymethylcellulose (CMC)
[10] = dose: 25.0 mg/kg/injection, schedule: Q01DX009 (ip), vehicle: saline with Tween-80
[11] = dose: 100.0 mg/kg/injection, schedule: Q04DX003 (ip), vehicle: saline

Measured: T/C

O=C(COc1ccc(Cl)c(Cl)c1)NCCc1cc[n+](Cc2ccc(Cl)c(S(=O)(=O)F)c2)cc1
inactive: [1] 96 % of control | [2] 94 % of control

Cc1cccc(C)c1OC(=O)NC1CCCCC1
inactive: dose: 100.0 mg/kg/injection, schedule: Q04DX002 (ip), vehicle: Klucel (hydroxypropylcellulose) (HPC) 107 % of control | dose: 200.0 mg/kg/injection, schedule: Q04DX002 (ip), vehicle: Klucel (hydroxypropylcellulose) (HPC) 89 % of control | dose: 400.0 mg/kg/injection, schedule: Q04DX002 (ip), vehicle: Klucel (hydroxypropylcellulose) (HPC) 96 % of control

COc1ccc2c(c1)CCC1(C)CC(C)C(=O)C=C21 (stereo not given)
inactive: [3] 92 % of control | [4] 91 % of control | [5] 92 % of control

C=CCN(CC=C)CC=C
inactive: dose: 25.0 mg/kg/injection, schedule: Q01DX009 (ip), vehicle: saline 100 % of control | dose: 50.0 mg/kg/injection, schedule: Q01DX009 (ip), vehicle: saline 97 % of control | dose: 100.0 mg/kg/injection, schedule: Q01DX009 (ip), vehicle: saline 100 % of control

COc1nn(C)c(=O)c2cccnc12
inactive: dose: 75.0 mg/kg/injection, schedule: Q01DX001 (ip), vehicle: saline 96 % of control | dose: 150.0 mg/kg/injection, schedule: Q01DX001 (ip), vehicle: saline 98 % of control

COc1ccc(C2CCCCC2O)cc1 (stereo not given)
inactive: dose: 100.0 mg/kg/injection, schedule: Q01DX009 (ip), vehicle: Klucel (hydroxypropylcellulose) (HPC) 94 % of control | [3] 97 % of control | dose: 200.0 mg/kg/injection, schedule: Q01DX009 (ip), vehicle: Klucel (hydroxypropylcellulose) (HPC) 99 % of control | [4] 91 % of control | dose: 400.0 mg/kg/injection, schedule: Q01DX009 (ip), vehicle: Klucel (hydroxypropylcellulose) (HPC) 99 % of control | [5] 93 % of control

COc1ccc(CN2CCCN(Cc3ccc(OC)cc3OC)C2c2cc(OC)ccc2OC)c(OC)c1
inactive: [6] 114 % of control | [7] 102 % of control | [8] 102 % of control | [9] 108 % of control

CSc1ccc(NC(=O)Nc2ccccc2C(F)(F)F)cc1
inactive: dose: 100.0 mg/kg/injection, schedule: Q01DX009 (ip), vehicle: other 96 % of control | dose: 200.0 mg/kg/injection, schedule: Q01DX009 (ip), vehicle: other 96 % of control | dose: 400.0 mg/kg/injection, schedule: Q01DX009 (ip), vehicle: other 95 % of control

COc1cc2c(cc1OC)/C(=C(\C#N)CCC(C)=O)NCC2
inactive: [7] 92 % of control | [8] 92 % of control

CC(=O)CC(=O)Nc1ccccc1C
inactive: dose: 50.0 mg/kg/injection, schedule: Q01DX001 (ip), vehicle: Klucel (hydroxypropylcellulose) (HPC) 100 % of control | [1] 106 % of control | [2] 106 % of control

CCOP(=O)(Nc1ccc2oc(=O)c3ccccc3c2c1)OCC
inactive: [6] 100 % of control | [7] 100 % of control | [8] 110 % of control | [9] 97 % of control

CCCCCCCCCCCCCCCCS(=O)(=O)N/N=C/c1ccc(Cl)c([N+](=O)[O-])c1
inactive: [7] 98 % of control | [8] 107 % of control | [9] 103 % of control

Oc1ccccc1C=NCCN1CC1.Oc1ccccc1C=NCCN1CC1.[Ni+2]
inactive: dose: 12.5 mg/kg/injection, schedule: Q01DX009 (ip), vehicle: saline with Tween-80 88 % of control | [10] 96 % of control | [11] 98 % of control

CC(=O)N(C)c1ccc(NC(=O)Nc2ccc([N+](=O)[O-])cc2Cl)cc1
inactive: [11] 96 % of control | dose: 200.0 mg/kg/injection, schedule: Q04DX003 (ip), vehicle: saline 95 % of control | dose: 400.0 mg/kg/injection, schedule: Q04DX003 (ip), vehicle: saline 88 % of control

O=C(O)c1cc(=O)c2c(OCC(O)COc3cccc4oc(C(=O)O)cc(=O)c34)cccc2o1
inactive: dose: 100.0 mg/kg/injection, schedule: Q01DX001 (ip), vehicle: saline 100 % of control | dose: 200.0 mg/kg/injection, schedule: Q01DX001 (ip), vehicle: saline 102 % of control | dose: 400.0 mg/kg/injection, schedule: Q01DX001 (ip), vehicle: saline 94 % of control

COc1ccc(/C(C)=N\OC(=O)N(C)C)c(OC)c1
inactive: [7] 100 % of control | [8] 100 % of control | [9] 103 % of control

NC(=O)c1cc(Cl)ccc1N
inactive: dose: 100.0 mg/kg/injection, schedule: Q01DX001 (ip), vehicle: other 97 % of control | dose: 200.0 mg/kg/injection, schedule: Q01DX001 (ip), vehicle: other 97 % of control | dose: 400.0 mg/kg/injection, schedule: Q01DX001 (ip), vehicle: other 105 % of control

N#C[C@@H]1C2C=CC(CC2)[C@H]1C#N
inactive: dose: 0.5 mg/kg/injection, schedule: Q03HX024 (ip), vehicle: gum acacia 106 % of control | dose: 0.7 mg/kg/injection, schedule: Q03HX024 (ip), vehicle: gum acacia 106 % of control | dose: 1.1 mg/kg/injection, schedule: Q03HX024 (ip), vehicle: gum acacia 106 % of control | dose: 1.6 mg/kg/injection, schedule: Q03HX024 (ip), vehicle: gum acacia 102 % of control | dose: 2.4 mg/kg/injection, schedule: Q01DX009 (ip), vehicle: gum acacia 104 % of control | dose: 2.4 mg/kg/injection, schedule: Q03HX024 (ip), vehicle: gum acacia 103 % of control | dose: 3.6 mg/kg/injection, schedule: Q01DX009 (ip), vehicle: gum acacia 102 % of control | dose: 5.0 mg/kg/injection, schedule: Q01DX001 (ip), vehicle: gum acacia 103 % of control | dose: 5.0 mg/kg/injection, schedule: Q04DX003 (ip), vehicle: gum acacia 97 % of control | dose: 7.0 mg/kg/injection, schedule: Q01DX001 (ip), vehicle: gum acacia 101 % of control | dose: 7.0 mg/kg/injection, schedule: Q04DX003 (ip), vehicle: gum acacia 97 % of control | dose: 11.0 mg/kg/injection, schedule: Q01DX001 (ip), vehicle: gum acacia 100 % of control | dose: 11.0 mg/kg/injection, schedule: Q04DX003 (ip), vehicle: gum acacia 92 % of control

Cc1c(N=NN(C)C)c(=O)n(-c2ccccc2)n1C
inactive: dose: 18.0 mg/kg/injection, schedule: Q01DX001 (ip), vehicle: saline with Tween-80 100 % of control | dose: 18.0 mg/kg/injection, schedule: Q04DX003 (ip), vehicle: saline with Tween-80 107 % of control | [10] 105 % of control | dose: 37.0 mg/kg/injection, schedule: Q01DX001 (ip), vehicle: saline with Tween-80 116 % of control | dose: 37.0 mg/kg/injection, schedule: Q04DX003 (ip), vehicle: saline with Tween-80 108 % of control | dose: 50.0 mg/kg/injection, schedule: Q01DX009 (ip), vehicle: saline with Tween-80 114 % of control | dose: 75.0 mg/kg/injection, schedule: Q01DX001 (ip), vehicle: saline with Tween-80 119 % of control | dose: 75.0 mg/kg/injection, schedule: Q04DX003 (ip), vehicle: saline with Tween-80 112 % of control | dose: 100.0 mg/kg/injection, schedule: Q01DX001 (ip), vehicle: saline with Tween-80 97 % of control
